# In patent US20040034049A1, “Promoters for the proliferation and differentiation of stem cells and/or neuron precursor cells” (priority 2003, published 2004):
# Test system: rat mixed glia culture
# Experiment: Neural neogenesis promoting effect in rat mixed glia culture (differentiation assay, β III tubulin positive cell count)
# Conditions: 120 h, 1 μM compound, 5 days differentiation, β III tubulin positive cells, % activity based on non-treatment control, read-out: Differentiation or neogenesis promoting activity (%)
# Source text: Neural Neogenesis Promoting Effect in Rat Mixture Glia Culture
# A neonatal SD rat was purchased from Charles River Japan, Inc. A nylon cell strainer with 40 micron in diameter was purchased from Becton Dickinson. DMEM/F12 Medium, antibiotics, N2 additives were purchased from LIFE TECHNOLOGY. Anti-β III-tubulin antibody was purchased from Sigma. DAKO EnVision+/HRP kit was purchased from DAKO Japan. Other reagents were commercial products of analytical grade.
# A rat mixed glia culture was made from a hippocampus of a neonatal SD rat of 2 days old. The neonate was anesthetized by ice-cooling, sacrificed by decapitation and the brain was taken out immediately. The meninx was removed carefully, and the […] was separated. The hippocampus was pulverized mechanically by passing through a nylon cell strainer with 40 micron in diameter. The cell dispersion was overlaid on serum, and the cells were fractionated by a non-continuous gradient centrifugation. The pellet was washed twice with a growth medium (DMEM/F12 supplemented with 10% FBS and antibiotics) and then dispersed. The mixed glia culture was inoculated onto a collagen-coated 96-well multiplate at the density of 1×10^5 cells per well, and incubated for 5 days.
# After incubating for 5 days, the mixed glia culture was subjected to a differentiation assay. The growth medium was replaced with a serum-free medium (DMEM/F12 supplemented with N2 additives and antibiotics) and the test compound was added simultaneously. After allowing to undergo the differentiation for 5 days followed by fixation with 4% p-formaldehyde, a mouse anti-β III tubulin monoclonal antibody and DAKO EnVision+/HRP kit was used to effect an immunostaining.
# The β III tubulin positive cells were counted, and the data in the presence (1 μM) of the Compound (I) and the absence (control) were compared.
row,SMILES,activity at 1 µM
1,"COc1cc2c(cc1OC)CN(c1c(C)c(C)c3c(c1C)C(c1ccc(C(C)C)cc1)C(C)(C)O3)C2 (stereo not drawn) [Example 11a, 5,6-dimethoxy-2-[3-(4-isopropylphenyl)-2,2,4,6,7-pentamethyl-2,3-dihydro-1-benzofuran-5-yl]isoindoline]",478%
2,"Cc1c(C)c2c(c(C)c1NCc1ccc(F)cc1)C(c1ccc(C(C)C)cc1)C(C)(C)O2 (stereo not drawn) [Example 19b, N-(4-fluorobenzyl)-3-(4-isopropylphenyl)-2,2,4,6,7-pentamethyl-2,3-dihydro-1-benzofuran-5-amine]",468%
3,"COc1cc2c(cc1OC)CN(c1c(C)c(C)c3c(c1C)[C@@H](c1ccc(C)cc1)C(C)(C)O3)C2 [Example 17a, (R)-5,6-dimethoxy-2-[2,2,4,6,7-pentamethyl-3-(4-methylphenyl)-2,3-dihydro-1-benzofuran-5-yl]isoindoline]",344%
